From patent US20140090094A1, “MODULATORS OF SLC22A7” (BAYER INTELLECTUAL PROPERTY GmbH, priority 2011, published 2014)

Target: OAT2h splice variant E131_W132insSQ (Homo sapiens, UniProt Q9Y694)
Settings: initial rate 1 min, 37° C., 10 μmol/l, LC-MS/MS, uptake buffer in the expression period
Method: A substrate search by LC-MS difference shading was performed with 293 cells stably transfected to express OAT2 from rat. […] To verify that trigonelline is directly transported by OAT2 and not just increased indirectly, initial rates of uptake (1 min, 37° C.) of trigonelline (10 μmol/l) were determined by LC-MS/MS.
For measurement of solute uptake, cells were grown in surface culture on 60 mm polystyrol dishes (Nunclon 150288, Nunc, Roskilde, Denmark) precoated with 0.1 g/l poly-L-ornithine in 0.15 M boric acid-NaOH, pH 8.4. Cells were used for uptake experiments at a confluence of at least 70%. Uptake was measured at 37° C. […] Radioactivity was determined, after cell lysis with 0.1% v/v Triton X-100 in 5 mmol/l TRIS-HCl pH 7.4, by liquid scintillation counting. […]
After centrifugation (1 min, 16000×g, 20° C.) of thawed lysates, 100 μl of the supernatant was mixed with either 10 μl unlabeled MPP+ iodide (0.5 ng/μl) or biphenyl-4-carboxylic acid (Sigma-Aldrich) as internal standard. Of this mixture, […] were analyzed by LCMS/MS on a triple quadrupole mass spectrometer (4000 Q TRAP, Applied Biosystems, Darmstadt, Germany). […] For quantification (scan time 150 ms), the optimal collision energy for argon-induced fragmentation in the second quadrupole was determined for each analyte. […] Acute uptake mediated by heterologously expressed carrier was then calculated as (c−a)−(d−b). […]

## C[n+]1cccc(C(=O)[O-])c1 [trigonelline]
  carrier-mediated clearance: 2.5±0.9 μl min-1 mg protein-1
